Consider 5 molecules from ChEMBL document CHEMBL5303573, “Mapping human microbiome drug metabolism by gut bacteria and their genes” (Nature, 2019).

Series [1] is described as follows: The drug is tested on Bifidobacterium breve strain: DSM20213 for biotransformation. The drug concentrations were measured before and after a 12-h incubation by liquid-chromatography-coupled mass spectrometry (LC–MS). Particulars: 2 µM.
Series [2] can be described thus: The drug is tested on Collinsella aerofaciens strain: ATCC25986 for biotransformation. The drug concentrations were measured before and after a 12-h incubation by liquid-chromatography-coupled mass spectrometry (LC–MS). Particulars: 2 µM.
Series [3] in a line: The drug is tested on Bacteroides cellulosilyticus strain: DSM14838 for biotransformation. The drug concentrations were measured before and after a 12-h incubation by liquid-chromatography-coupled mass spectrometry (LC–MS). Particulars: 2 µM.
Series [4] in a line: The drug is tested on Bacteroides coprophilus strain: DSM18228 for biotransformation. The drug concentrations were measured before and after a 12-h incubation by liquid-chromatography-coupled mass spectrometry (LC–MS). Particulars: 2 µM.
The nature of series [5]: The drug is tested on Bacteroides fragilis strain: HMW610 for biotransformation. The drug concentrations were measured before and after a 12-h incubation by liquid-chromatography-coupled mass spectrometry (LC–MS). Particulars: 2 µM.
A short description of series [6]: The drug is tested on Bacteroides fragilis strain: ATCC43859 for biotransformation. The drug concentrations were measured before and after a 12-h incubation by liquid-chromatography-coupled mass spectrometry (LC–MS). Particulars: 2 µM.
Series [7] is described as follows: The drug is tested on Bacteroides vulgatus strain: ATCC8482 for biotransformation. The drug concentrations were measured before and after a 12-h incubation by liquid-chromatography-coupled mass spectrometry (LC–MS). Particulars: phocaeicola vulgatus, 2 µM.
The nature of series [8]: The drug is tested on Bacteroides xylanisolvens strain: DSM18836 for biotransformation. The drug concentrations were measured before and after a 12-h incubation by liquid-chromatography-coupled mass spectrometry (LC–MS). Particulars: 2 µM.
Series [9] is described as follows: The drug is tested on Blautia hansenii strain: DSM20583 for biotransformation. The drug concentrations were measured before and after a 12-h incubation by liquid-chromatography-coupled mass spectrometry (LC–MS). Particulars: 2 µM.
The nature of series [10]: The drug is tested on Clostridium ramosum strain: DSM1402 for biotransformation. The drug concentrations were measured before and after a 12-h incubation by liquid-chromatography-coupled mass spectrometry (LC–MS). Particulars: thomasclavelia ramosa, 2 µM.
The nature of series [11]: The drug is tested on Clostridium sporogenes strain: ATCC15579 for biotransformation. The drug concentrations were measured before and after a 12-h incubation by liquid-chromatography-coupled mass spectrometry (LC–MS). Particulars: 2 µM.
A short description of series [12]: The drug is tested on Clostridium symbiosum strain: ATCC14940 for biotransformation. The drug concentrations were measured before and after a 12-h incubation by liquid-chromatography-coupled mass spectrometry (LC–MS). Particulars: 2 µM.
A short description of series [13]: The drug is tested on Eubacterium hallii strain: DSM3353 for biotransformation. The drug concentrations were measured before and after a 12-h incubation by liquid-chromatography-coupled mass spectrometry (LC–MS). Particulars: anaerobutyricum hallii, 2 µM.
Series [14] in a line: The drug is tested on Eubacterium rectale strain: ATCC33656 for biotransformation. The drug concentrations were measured before and after a 12-h incubation by liquid-chromatography-coupled mass spectrometry (LC–MS). Particulars: agathobacter rectalis, 2 µM.
Series [15] can be described thus: The drug is tested on Edwardsiella tarda strain: ATCC23685 for biotransformation. The drug concentrations were measured before and after a 12-h incubation by liquid-chromatography-coupled mass spectrometry (LC–MS). Particulars: 2 µM.
The conditions of series [16]: bacteroides fragilis, 12 h, 2 µM.
Description: The drug is tested on Bacteroides fragilis strain: 3397 (T10) for biotransformation. The drug concentrations were measured before and after a 12-h incubation by liquid-chromatography-coupled mass spectrometry (LC–MS)
The conditions of series [17]: bacteroides fragilis, 12 h, 2 µM. The source holds these as a separate data set.
Description: The drug is tested on Bacteroides fragilis strain: DS-208 for biotransformation. The drug concentrations were measured before and after a 12-h incubation by liquid-chromatography-coupled mass spectrometry (LC–MS)
For series [18] the following is noted: bacteroides thetaiotaomicron, 12 h, 2 µM.
Description: The drug is tested on Bacteroides thetaiotaomicron strain: VPI-5482 for biotransformation. The drug concentrations were measured before and after a 12-h incubation by liquid-chromatography-coupled mass spectrometry (LC–MS)
For series [19] the following is noted: bacteroides thetaiotaomicron, 12 h, 2 µM. This is another data set of the same source.
Description: The drug is tested on Bacteroides thetaiotaomicron strain: 7330 for biotransformation. The drug concentrations were measured before and after a 12-h incubation by liquid-chromatography-coupled mass spectrometry (LC–MS)
The conditions of series [20]: victivallis vadensis, 12 h, 2 µM.
Description: The drug is tested on Victivallis vadensis strain: ATCC BAA-548 for biotransformation. The drug concentrations were measured before and after a 12-h incubation by liquid-chromatography-coupled mass spectrometry (LC–MS)

For `COc1ccccc1OCCNCC(O)COc1cccc2[nH]c3ccccc3c12` (stereo not given) [CARVEDILOL], the “Bacterial Biotransformation” value is “Compound NOT metabolized” in series [1]; “Compound metabolized” in [2]; “Compound metabolized” in [3]; “Compound metabolized” in series [4]; “Compound NOT metabolized” in series [5]; “Compound NOT metabolized” in [6]. For the same molecule, the “Bacterial Biotransformation” value in [7] is reported as “Compound metabolized”; in series [8] it was “Compound metabolized”; in [9] it was “Compound metabolized”; in series [10], “Compound metabolized”; in series [11], “Compound metabolized”; in [12], “Compound NOT metabolized”. Further, the “Bacterial Biotransformation” value is recorded as “Compound metabolized” in [13]; “Compound NOT metabolized” in [14]; “Compound NOT metabolized” in [15]; “Compound NOT metabolized” in series [16]; “Compound metabolized” in [17]; “Compound metabolized” in series [18]. The “Bacterial Biotransformation” value in series [19] is “Compound metabolized”; in [20], “Compound NOT metabolized”.

For the molecule `CNC(=C[N+](=O)[O-])NCCSCc1ccc(CN(C)C)o1` [RANITIDINE], the “Bacterial Biotransformation” value in series [1] is listed as “Compound metabolized”; in series [2] it was “Compound metabolized”; in series [3], “Compound metabolized”; in series [4], “Compound metabolized”; in series [5], “Compound NOT metabolized”; in series [6], “Compound NOT metabolized”. Moreover, the “Bacterial Biotransformation” value in series [7] is “Compound metabolized”; in series [8] it was “Compound metabolized”; in series [9] it was “Compound metabolized”; in [10], “Compound metabolized”; in series [11], “Compound NOT metabolized”; in series [12], “Compound metabolized”. Moreover, the “Bacterial Biotransformation” value is given as “Compound metabolized” in series [13]; “Compound metabolized” in [14]; “Compound NOT metabolized” in series [15]; “Compound NOT metabolized” in series [16]; “Compound metabolized” in series [17]; “Compound NOT metabolized” in [18]. Besides, the “Bacterial Biotransformation” value in series [19] and in series [20] was “Compound NOT metabolized” throughout.

Turning to `CC(=O)Nc1ccc(OC(C)=O)cc1` [DIACETAMATE], the “Bacterial Biotransformation” value in series [1], in series [2], in series [3], in [4], in series [5] and in series [6] was “Compound metabolized” in each case. Moreover, the “Bacterial Biotransformation” value is listed as “Compound metabolized” in series [7]; “Compound metabolized” in series [8]; “Compound NOT metabolized” in series [9]; “Compound metabolized” in [10]; “Compound metabolized” in [11]; “Compound metabolized” in series [12]. The “Bacterial Biotransformation” value in series [13], in series [14], in [15], in [16], in series [17] and in [18] was “Compound metabolized” in each case. Further, the “Bacterial Biotransformation” value in [19] and in series [20] was “Compound metabolized” throughout.

On to `CC(=O)OCC(=O)[C@@]12N=C(C)O[C@@H]1C[C@H]1[C@@H]3CCC4=CC(=O)C=C[C@]4(C)[C@H]3[C@@H](O)C[C@@]12C` [DEFLAZACORT], for which the “Bacterial Biotransformation” value in series [1], in series [2], in series [3], in [4], in series [5] and in [6] was “Compound metabolized” each time. The “Bacterial Biotransformation” value in series [7], in series [8], in [9], in series [10], in series [11] and in [12] was “Compound metabolized” in each case. Besides, the “Bacterial Biotransformation” value in [13], in series [14], in series [15], in series [16], in series [17] and in series [18] was “Compound metabolized” in each case. In addition, the “Bacterial Biotransformation” value in series [19] and in series [20] was “Compound metabolized” throughout.

Turning to `COc1c(C)c2c(c(O)c1C/C=C(\C)CCC(=O)OCCN1CCOCC1)C(=O)OC2` [MYCOPHENOLATE MOFETIL], the “Bacterial Biotransformation” value in series [1], in series [2], in [3], in series [4], in series [5] and in [6] was “Compound metabolized” each time. In addition, the “Bacterial Biotransformation” value in [7], in series [8], in series [9], in series [10], in [11] and in series [12] was “Compound metabolized” throughout. The “Bacterial Biotransformation” value in series [13], in [14], in series [15], in series [16], in series [17] and in series [18] was “Compound metabolized” each time. In addition, the “Bacterial Biotransformation” value in series [19] and in [20] was “Compound metabolized” each time.
